Measured values: patent US20240116985A1, “STAPLED PEPTIDES AND METHODS THEREOF” (priority 2020, published 2024)
pEC50, pIC50: −log10 of the molar value. Values after ≈ are worked out from the molar mass of the structure shown. Where two headings read alike, the source gives them in different places.

Assays:
[1] = Solubility in PBS; assay type: physicochemical
How it was run: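 The PBS solution was ultracentrifuged and the supernatant analyzed by HPLC. Its peak area was divided by that of a 50 μM peptide DMSO reference injection and multiplied by 50 uM to give solubility.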

[2] = biological target: T1, full-length beta-Catenin (Uniprot ID P35222) (Homo sapiens, UniProt P35222); experiment: Fluorescence polarization IC50 (beta-catenin / 5FAM-TCF4 10-53 competition); assay type: binding
T1 construct: 10 nM full-length beta-Catenin (Uniprot ID P35222)
T1 sequence (P35222 1-781): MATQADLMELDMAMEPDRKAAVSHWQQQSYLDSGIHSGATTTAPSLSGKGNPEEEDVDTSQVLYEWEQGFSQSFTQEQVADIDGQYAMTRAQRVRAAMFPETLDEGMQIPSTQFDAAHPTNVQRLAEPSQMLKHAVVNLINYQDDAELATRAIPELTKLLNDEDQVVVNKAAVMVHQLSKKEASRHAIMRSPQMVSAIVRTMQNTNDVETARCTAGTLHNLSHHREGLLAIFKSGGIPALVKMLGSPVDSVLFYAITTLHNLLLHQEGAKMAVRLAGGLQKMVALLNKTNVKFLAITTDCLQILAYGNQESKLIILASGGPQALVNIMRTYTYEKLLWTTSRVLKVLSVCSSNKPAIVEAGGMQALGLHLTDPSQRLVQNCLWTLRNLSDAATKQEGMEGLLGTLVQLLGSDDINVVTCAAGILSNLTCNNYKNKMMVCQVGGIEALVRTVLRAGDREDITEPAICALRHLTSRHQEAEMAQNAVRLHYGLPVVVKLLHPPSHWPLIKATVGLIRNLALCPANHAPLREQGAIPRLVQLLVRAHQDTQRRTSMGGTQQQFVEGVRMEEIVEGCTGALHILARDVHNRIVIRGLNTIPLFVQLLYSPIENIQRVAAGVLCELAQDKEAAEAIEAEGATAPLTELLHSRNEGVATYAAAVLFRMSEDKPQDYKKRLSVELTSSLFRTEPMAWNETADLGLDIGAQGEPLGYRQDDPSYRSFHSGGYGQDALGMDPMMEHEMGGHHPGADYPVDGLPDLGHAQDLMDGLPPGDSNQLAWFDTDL

[3] = biological target: T2, full-length B-Catenin (Uniprot ID P35222) (Homo sapiens, UniProt P35222); experiment: Alphascreen binding assay (beta-catenin / biotin-TCF4 10-53)
T2 construct: 65 nM full-length B-Catenin (Uniprot ID P35222)
T2 sequence (P35222 1-781): T1 sequence (P35222 1-781)
How it was run: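 Final concentrations: 65 nM full-length human β-catenin plus 10 nM biotin-TCF4(10-53) peptide, test peptide 3-fold from 10 uM to 5 nM, preincubated 15 min at 20 °C in Tris pH 8.0/250 mM NaCl buffer. Nickel-chelate AlphaScreen donor/acceptor beads then added for 60 min in the dark; duplicate reads fitted to 1:1 binding model with Hill slope.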

[4] = CHI Log D procedure; assay type: physicochemical; conditions: pH 7.4
[5] = biological target: T3, beta-catenin/TCF4 engagement (Homo sapiens, UniProt P35222); experiment: Nano-BRET target engagement assay (B-cat-Halo & TCF4-Luc in HEK293 cells); assay type: cell-based; conditions: for pIC50: read-out: NanoBRET Abs IC50
T3 construct: expressed in transfected cells; host or cells: HEK293
T3 sequence (P35222 1-781): T1 sequence (P35222 1-781)

[6] = system: COLO320DM cells; assay type: cell-based; conditions: COLO320DM cells, read-out: COLO320DM Proliferation Abs IC50
Description: COLO320DM proliferation assay IC50: In some embodiments, inhibition of cell proliferation by provided technologies were assessed using cell lines related to or from certain conditions, disorders or diseases. In some embodiments, cell proliferation was assessed in COLO320DM cells. In some embodiments, assessment was performed using the following procedure: On Day 1, cultured COLO320DM cells in a T75 flask were trypsinized in 3 mL of 0.25% trypsin/EDTA for 5 min and quenched with 10 mL RPMI-1640+4% HI FBS assay media. The cells were spun down at 1200 rpm for 5 min, the cell pellet collected and re-suspended at 5000 cells/mL in assay media. Using a Combi liquid handler, cells were dispensed (50 uL, 250 cells/well) into three 384 well plates. Plates were incubated at 37° C., […]. On day 2, compounds were added. A liquid handling system was used to prepare the compound dilution and dispense compound into assay plates. The compounds were serially diluted 1/2 in 90% DMSO to create a 7 point dose curve. From compound plate, 100 nL of compound were dispensed directly into wells of the assay plates to create a dose curve starting at 20 uM and ending at 313 nM. Assay plates were incubated at 37° C., […]. On day 6, assay plates were removed from the incubator and allowed to sit at room temperature for 30 min. Using a liquid handler, 20 uL of CellTiter Glo reagent was added to each well. The assay plates were shaken for 2 min and allowed to sit on the bench for 10-15 minutes. The assay plates were read using the CellTiter Glo protocol on a GloMax microplate reader, and the data analyzed using GraphPad Prism.

[7] = Table E2-1, read-out: beta-Catenin FP IC50
[8] = fluorescence polarization, beta-catenin, read-out: FP EC50
[9] = fluorescence polarization, read-out: beta-Catenin FP IC50

| Solubility [1] | pIC50 [2, 7] | pIC50 [2, 8] | pEC50 [3] | CHI Log D [4] | Structure (SMILES) | pIC50 [5] | pIC50 [2, 9] | pIC50 [6] | pIC50 ([6]; absolute IC50) | further results |
| --- | --- | --- | --- | --- | --- | --- | --- | --- | --- | --- |
| 50 µM (≈ 92.1 µg/mL) | 5.91 | 5.91 | 6.81 | 1.24 | CC[C@H](C)[C@H](NC(=O)[C@H](CC(=O)O)NC(=O)[C@H](C)NC(C)=O)C(=O)N[C@]1(C)CCN(C)C(=O)OCC=CCCCCC[C@@](C)(C(=O)N[C@@H](Cc2ccccc2)C(=O)N[C@@H](Cc2c[nH]c3ccccc23)C(=O)N[C@@H](Cc2c[nH]cn2)C(N)=O)NC(=O)[C@H](CCC(N)=O)NC(=O)[C@H](Cc2ccccc2)NC(=O)[C@H](C)NC(=O)[C@H](C)NC(=O)[C@H](CCC(=O)O)NC(=O)[C@H](CC(=O)O)NC1=O [I-67, Ac-Ala-Asp-Ile-RdN-Asp-Glu-Ala-Ala-Phe-Gln-S7-Phe-Trp-His-NH2] |  |  |  |  |  |
| 26 µM (≈ 47.8 µg/mL) | 5.51 | 5.51 | 6.98 | 3.076 | CCN(CC(=O)O)C[C@@H]1NC(=O)[C@H](CC(=O)O)NC(=O)C2(CCCC=CCCCCCC[C@@](C)(C(=O)N[C@@H](Cc3ccccc3)C(=O)N[C@@H](Cc3c[nH]c4ccccc34)C(=O)N[C@@H](CCC(N)=O)C(N)=O)NC(=O)[C@H](C(C)C)NC(=O)[C@H](Cc3ccccc3)NC(=O)[C@H](C)NC(=O)[C@H](C)NC1=O)CCCC=CC[C@]1(CCCN1C(C)=O)C(=O)N[C@@H](CC(=O)O)C(=O)N[C@@H](C)C(=O)N2 (stereo partly drawn) [I-173, Ac-PL3-Asp-Ala-B5-Asp-EtGA-Ala-Ala-Phe-Val-S8-Phe-Trp-Gln-NH2] |  |  |  |  |  |
| 32 µM (≈ 56.1 µg/mL) | 5.88 | 5.88 | 7.13 | 1.926 | CC(=O)N1CCC[C@]12CC=CCCCC1(CCCC=CCCCCCC[C@@](C)(C(=O)N[C@@H](Cc3ccccc3)C(=O)N[C@@H](Cc3c[nH]c4ccccc34)C(=O)N[C@@H](CCC(N)=O)C(N)=O)NC(=O)[C@H](C)NC(=O)[C@H](Cc3ccccc3)NC(=O)[C@H](C)NC(=O)[C@H](C)NC(=O)[C@H](CC(=O)O)NC(=O)[C@H](CC(=O)O)NC1=O)NC(=O)[C@H](C)NC(=O)[C@H](CC(=O)O)NC2=O (stereo partly drawn) [I-288, Ac-PL3-Asp-Ala-B5-Asp-Asp-Ala-Ala-Phe-Ala-S8-Phe-Trp-Gln-NH2] |  |  |  |  |  |
|  |  |  |  |  | CC(=O)N1CCC[C@]12CC=CCCCC1(CCCC=CCCCOC(=O)N3CC[C@@](C(=O)N[C@@H](Cc4ccccc4Cl)C(=O)N[C@@H](Cc4csc5ccccc45)C(=O)N[C@@H](CC(N)=O)C(N)=O)(C3)NC(=O)[C@H](CC(C)C)NC(=O)[C@H](Cc3ccccc3)NC(=O)[C@H](C)NC(=O)[C@H](C)NC(=O)[C@H](Cc3cccc(C(=O)O)c3)NC(=O)[C@H](CC(=O)O)NC1=O)NC(=O)[C@H](CC(C)(C)C)NC(=O)[C@H](CC(=O)O)NC2=O (stereo partly drawn) [I-1904, Ac-PL3-Asp-Npg-B5-Asp-3COOHF-Ala-Ala-Phe-Leu-PyrS2-2C1F-BztA-Asn-NH2] | 5.38 | 7.82 | < 4.70 |  |  |
|  |  |  |  |  | CC(=O)N1CCC[C@]12CC=CCCCC1(CCCC=CCCCOC(=O)N3CC[C@@](C(=O)N[C@@H](Cc4ccccc4Cl)C(=O)N[C@@H](Cc4csc5ccccc45)C(=O)N[C@@H](CC(N)=O)C(=O)N[C@@H](C)C(=O)N[C@@H](C)C(=O)N[C@@H](C)C(N)=O)(C3)NC(=O)[C@H](CC(C)C)NC(=O)[C@H](Cc3ccccc3)NC(=O)[C@H](C)NC(=O)[C@H](C)NC(=O)[C@H](Cc3cccc(C(=O)O)c3)NC(=O)[C@H](CC(=O)O)NC1=O)NC(=O)[C@H](CC(C)(C)C)NC(=O)[C@H](CC(=O)O)NC2=O (stereo partly drawn) [I-2040, Ac-PL3-Asp-Npg-B5-Asp-3COOHF-Ala-Ala-Phe-Leu-PyrS2-2C1F-BztA-Asn-Ala-Ala-Ala-NH2] | 5.55 | 7.62 | < 4.70 |  |  |
|  |  |  |  |  | CC(=O)N1CCC[C@]12CC=CCCCC1(CCCC=CCCCOC(=O)N3CC[C@@](C(=O)N[C@@H](Cc4ccsc4)C(=O)N[C@@H](Cc4csc5ccccc45)C(=O)N[C@@H](CC(N)=O)C(N)=O)(C3)NC(=O)[C@H](Cc3ccccc3)NC(=O)[C@H](Cc3ccccc3)NC(=O)[C@H](C)NC(=O)[C@H](C)NC(=O)[C@H](Cc3cccc(C(=O)O)c3)NC(=O)[C@H](CC(=O)O)NC1=O)NC(=O)[C@H](CC(C)(C)C)NC(=O)[C@H](CC(=O)O)NC2=O (stereo partly drawn) [I-2044, Ac-PL3-Asp-Npg-B5-Asp-3COOHF-Ala-Ala-Phe-Phe-PyrS2-3Thi-BztA-Asn-NH2] | 5.59 | 8.05 | < 4.70 |  |  |
|  |  |  |  |  | CC(=O)N1CCC[C@]12CC=CCCCC1(CCCC=CCCCOC(=O)N3CC[C@@](C(=O)N[C@@H](Cc4ccsc4)C(=O)N[C@@H](Cc4csc5ccccc45)C(=O)N[C@@H](CC(N)=O)C(=O)N[C@@H](C)C(=O)N[C@@H](C)C(=O)N[C@@H](C)C(=O)N[C@@H](C)C(=O)N[C@@H](C)C(N)=O)(C3)NC(=O)[C@H](CC(C)C)NC(=O)[C@H](Cc3ccccc3)NC(=O)[C@H](C)NC(=O)[C@H](C)NC(=O)[C@H](Cc3cccc(C(=O)O)c3)NC(=O)[C@H](CC(=O)O)NC1=O)NC(=O)[C@H](CC(C)(C)C)NC(=O)[C@H](CC(=O)O)NC2=O (stereo partly drawn) [I-2268, Ac-PL3-Asp-Npg-B5-Asp-3COOHF-Ala-Ala-Phe-Leu-PyrS2-3Thi-BztA-Asn-Ala-Ala-Ala-Ala-Ala-NH2] |  | 7.89 |  | 5.37 | pIC50 ([5]; absolute IC50): 5.51 |
|  |  |  |  |  | CC(=O)N1CCC[C@]12CC=CCCCC1(CCCC=CCCCOC(=O)N3CC[C@@](C(=O)N[C@@H](Cc4ccsc4)C(=O)N[C@@H](Cc4csc5ccccc45)C(=O)N[C@@H](CC(N)=O)C(=O)N[C@@H](C)C(=O)N[C@@H](C)C(=O)N[C@@H](C)C(=O)N[C@@H](C)C(=O)N[C@@H](C)C(=O)N[C@@H](C)C(=O)N[C@@H](C)C(N)=O)(C3)NC(=O)[C@H](CC(C)C)NC(=O)[C@H](Cc3ccccc3)NC(=O)[C@H](C)NC(=O)[C@H](C)NC(=O)[C@H](Cc3cccc(C(=O)O)c3)NC(=O)[C@H](CC(=O)O)NC1=O)NC(=O)[C@H](CC(C)(C)C)NC(=O)[C@H](CC(=O)O)NC2=O (stereo partly drawn) [I-2269] |  |  |  | 5.41 | IC50 ([5]; NanoBRET Abs IC50 (uM), absolute IC50): 2.3 µM; IC50 ([2]; beta-Catenin FP IC50 (nM), fluorescence polarization): 20 nM |
|  |  |  |  |  | CC(=O)N1CCC[C@]12CC=CCCCC1(CCCC=CCCCOC(=O)N3CC[C@@](C(=O)N[C@@H](Cc4ccsc4)C(=O)N[C@@H](Cc4csc5ccccc45)C(=O)N[C@@H](CC(N)=O)C(=O)N[C@@H](C)C(=O)NC(C)(C)C(=O)N[C@@H](C)C(N)=O)(C3)NC(=O)[C@H](CC(C)C)NC(=O)[C@H](Cc3ccccc3)NC(=O)[C@H](C)NC(=O)[C@H](C)NC(=O)[C@H](Cc3cccc(C(=O)O)c3)NC(=O)[C@H](CC(=O)O)NC1=O)NC(=O)[C@H](CC(C)(C)C)NC(=O)[C@H](CC(=O)O)NC2=O (stereo partly drawn) [I-2271, Ac-PL3-Asp-Npg-B5-Asp-3COOHF-Ala-Ala-Phe-Leu-PyrS2-3Thi-BztA-Asn-Ala-Aib-Ala-NH2] |  | 7.89 |  | 5.05 | pIC50 ([5]; absolute IC50): 5.64 |
